According to US12662491B2 (Redona Therapeutics, Inc., priority 2020, dated 2026):
pIC50: −log10 of the molar value.

molecular target: T1, Zcchc11 enzyme (Homo sapiens, UniProt Q5TAX3); experiment: TUTase assay (Zcchc11 assay, Lin28a-dependent polyuridylation of pre-let-7); assay type: biochemical; conditions: Lin28a-dependent Zcchc11 (Z11) TUTase assay; read-out: Potency Lin28a-dep Z11 IC50
T1 construct: made in house; host or cells: HEK293 cells (Zcchc11); E. coli Rosetta II (LIN28A)
T1 sequence (Q5TAX3 212-1420): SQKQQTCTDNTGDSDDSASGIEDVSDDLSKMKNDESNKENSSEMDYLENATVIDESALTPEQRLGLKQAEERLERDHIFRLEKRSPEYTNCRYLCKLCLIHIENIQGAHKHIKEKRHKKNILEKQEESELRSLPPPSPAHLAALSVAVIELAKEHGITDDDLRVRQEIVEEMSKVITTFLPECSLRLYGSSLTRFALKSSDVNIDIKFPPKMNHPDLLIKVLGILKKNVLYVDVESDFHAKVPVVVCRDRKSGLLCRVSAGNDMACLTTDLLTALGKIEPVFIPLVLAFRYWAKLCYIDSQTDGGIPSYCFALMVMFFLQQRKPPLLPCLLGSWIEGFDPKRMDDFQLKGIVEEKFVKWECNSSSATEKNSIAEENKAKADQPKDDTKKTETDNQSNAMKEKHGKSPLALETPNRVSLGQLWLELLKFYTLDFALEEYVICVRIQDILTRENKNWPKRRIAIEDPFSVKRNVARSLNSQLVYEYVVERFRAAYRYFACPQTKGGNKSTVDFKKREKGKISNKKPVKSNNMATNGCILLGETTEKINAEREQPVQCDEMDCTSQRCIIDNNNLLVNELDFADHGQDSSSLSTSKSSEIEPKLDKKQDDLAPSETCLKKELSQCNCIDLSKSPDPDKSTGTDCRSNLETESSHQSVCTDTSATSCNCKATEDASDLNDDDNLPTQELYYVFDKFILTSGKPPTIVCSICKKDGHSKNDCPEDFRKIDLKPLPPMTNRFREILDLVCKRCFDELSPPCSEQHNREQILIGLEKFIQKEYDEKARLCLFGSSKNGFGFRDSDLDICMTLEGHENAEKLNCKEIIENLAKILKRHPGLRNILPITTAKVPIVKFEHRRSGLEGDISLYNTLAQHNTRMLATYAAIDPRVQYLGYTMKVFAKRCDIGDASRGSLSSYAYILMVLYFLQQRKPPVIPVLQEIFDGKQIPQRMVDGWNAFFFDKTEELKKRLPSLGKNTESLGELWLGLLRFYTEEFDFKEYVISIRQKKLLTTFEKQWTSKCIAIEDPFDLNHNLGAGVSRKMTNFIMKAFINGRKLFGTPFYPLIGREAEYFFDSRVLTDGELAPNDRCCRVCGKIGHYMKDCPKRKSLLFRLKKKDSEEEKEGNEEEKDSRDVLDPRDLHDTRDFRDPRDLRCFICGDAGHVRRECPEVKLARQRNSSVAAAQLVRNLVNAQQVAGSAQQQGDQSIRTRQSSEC
Method in brief: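 Readout: time-dependent quench of 5′-fluorescein pre-let-7 (2 nM) as 3′-rhodamine A20 probe anneals to poly(U) tails. Enzyme 0.2 nM Zcchc11 (res. 212-1420), LIN28A 10 nM, UTP 5 uM; pH 7.3 HEPES, 150 mM KCl, 5 mM MgCl2, RT. 4-parameter IC50; 100% = DMSO, 0% = no UTP.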

| pIC50 | Compound |
| --- | --- |
| ≥ 6.00 | CN(C)C1CN(c2ccc(-n3cc(C(=O)O)c(=O)c4cc(Cl)c(N5CCC[C@@H]5COc5ncccc5Cl)nc43)cn2)C1 [Example 532, (R)-6-chloro-7-(2-(((3-chloropyridin-2-yl)oxy)methyl)pyrrolidin-1-yl)-1-(6-(3-(dimethylamino)azetidin-1-yl)pyridin-3-yl)-4-oxo-1,4-dihydro-1,8-naphthyridine-3-carboxylic acid] |
| ≥ 6.00 | Cc1cc2c(=O)c(C(=O)O)cn(-c3ccc(N4CC(N(C)C)C4)nc3)c2cc1N1CCC[C@@H]1COc1ncccc1Cl [Example 533, (R)-7-(2-(((3-chloropyridin-2-yl)oxy)methyl)pyrrolidin-1-yl)-1-(6-(3-(dimethylamino)azetidin-1-yl)pyridin-3-yl)-6-methyl-4-oxo-1,4-dihydroquinoline-3-carboxylic acid] |
| ≥ 6.00 | O=C(O)c1cn(-c2ccc(F)c(O)c2)c2cc(N3CCC[C@@H]3COc3ccccn3)c(F)cc2c1=O [Example 534, (R)-6-fluoro-1-(4-fluoro-3-hydroxyphenyl)-4-oxo-7-(2-((pyridin-2-yloxy)methyl)pyrrolidin-1-yl)-1,4-dihydroquinoline-3-carboxylic acid] |
| ≥ 6.00 | O=C(O)c1cn(C2CCn3ccnc3C2)c2cc(N3CCC[C@@H]3COc3ncccc3Cl)c(Br)cc2c1=O (stereo partly drawn) [Example 536, 6-bromo-7-((R)-2-(((3-chloropyridin-2-yl)oxy)methyl)pyrrolidin-1-yl)-4-oxo-1-(5,6,7,8-tetrahydroimidazo [1,2-a]pyridin-7-yl)-1,4-dihydroquinoline-3-carboxylic acid] |
| ≥ 6.00 | CN(C)C1CN(c2ccc(-n3cc(C(=O)O)c(=O)c4cc(Br)c(N5CCC[C@@H]5COc5ncccc5Cl)cc43)cn2)C1 [Example 537, (R)-6-bromo-7-(2-(((3-chloropyridin-2-yl)oxy)methyl)pyrrolidin-1-yl)-1-(6-(3-(dimethylamino)azetidin-1-yl)pyridin-3-yl)-4-oxo-1,4-dihydroquinoline-3-carboxylic acid] |
| ≥ 6.00 | N#Cc1cc2c(=O)c(C(=O)O)cn(-c3cnccn3)c2cc1N1CCC[C@@H]1COc1ncccc1Cl [Example 538, (R)-7-(2-(((3-chloropyridin-2-yl)oxy)methyl)pyrrolidin-1-yl)-6-cyano-4-oxo-1-(pyrazin-2-yl)-1,4-dihydroquinoline-3-carboxylic acid] |
| ≥ 6.00 | COCCNc1ccc(-n2cc(C(=O)O)c(=O)c3cc(C#N)c(N4CCC[C@@H]4COc4ncccc4Cl)cc32)cn1 [Example 539, (R)-7-(2-(((3-chloropyridin-2-yl)oxy)methyl)pyrrolidin-1-yl)-6-cyano-1-(6-((2-methoxyethyl)amino)pyridin-3-yl)-4-oxo-1,4-dihydroquinoline-3-carboxylic acid] |

More lines, now with the values behind:

| Compound | pIC50 |
| --- | --- |
| Nc1ccc(-n2cc(C(=O)O)c(=O)c3cc(Cl)c(N4CCC[C@@H]4COc4ncccc4Cl)cc32)c(F)n1 [Example 518, (R)-1-(6-amino-2-fluoropyridin-3-yl)-6-chloro-7-(2-(((3-chloropyridin-2-yl)oxy)methyl)pyrrolidin-1-yl)-4-oxo-1,4-dihydroquinoline-3-carboxylic acid] | ≥ 6.00 |
| O=C(O)c1cn(-c2cnccn2)c2cc(N3C[C@@H](F)C[C@H]3COc3ncccc3Cl)c(Cl)cc2c1=O [Example 519, 6-chloro-7-((2S,4S)-2-(((3-chloropyridin-2-yl)oxy)methyl)-4-fluoropyrrolidin-1-yl)-4-oxo-1-(pyrazin-2-yl)-1,4-dihydroquinoline-3-carboxylic acid] | ≥ 6.00 |
| CN1CC2(C1)CN(c1ccc(-n3cc(C(=O)O)c(=O)c4cc(Cl)c(N5CCC[C@@H]5COc5ncccc5Cl)cc43)cn1)C2 [Example 520, (R)-6-chloro-7-(2-(((3-chloropyridin-2-yl)oxy)methyl)pyrrolidin-1-yl)-1-(6-(6-methyl-2,6-diazaspiro[3.3]heptan-2-yl)pyridin-3-yl)-4-oxo-1,4-dihydroquinoline-3-carboxylic acid] | ≥ 6.00 |
| CN(C)[C@H]1CCN(c2ccc(-n3cc(C(=O)O)c(=O)c4cc(Cl)c(N5CCC[C@@H]5COc5ncccc5Cl)cc43)cn2)C1 [Example 521, 6-chloro-7-((R)-2-(((3-chloropyridin-2-yl)oxy)methyl)pyrrolidin-1-yl)-1-(6-((S)-3-(dimethylamino)pyrrolidin-1-yl)pyridin-3-yl)-4-oxo-1,4-dihydroquinoline-3-carboxylic acid] | ≥ 6.00 |
| CN(C)[C@@H]1CCN(c2ccc(-n3cc(C(=O)O)c(=O)c4cc(Cl)c(N5CCC[C@@H]5COc5ncccc5Cl)cc43)cn2)C1 [Example 522, 6-chloro-7-((R)-2-(((3-chloropyridin-2-yl)oxy)methyl)pyrrolidin-1-yl)-1-(6-((R)-3-(dimethylamino)pyrrolidin-1-yl)pyridin-3-yl)-4-oxo-1,4-dihydroquinoline-3-carboxylic acid] | ≥ 6.00 |
| CN1CC2CN(c3ccc(-n4cc(C(=O)O)c(=O)c5cc(Cl)c(N6CCC[C@@H]6COc6ncccc6Cl)cc54)cn3)CC2C1 (stereo partly drawn) [Example 523, 6-chloro-7-((R)-2-(((3-chloropyridin-2-yl)oxy)methyl)pyrrolidin-1-yl)-1-(6-(5-methylhexahydro-pyrrolo[3,4-c]pyrrol-2(1H)-yl)pyridin-3-yl)-4-oxo-1,4-dihydroquinoline-3-carboxylic acid] | ≥ 6.00 |
| COc1cc2c(=O)c(C(=O)O)cn(-c3ccc(N4CC(N(C)C)C4)nc3)c2cc1N1CCC[C@@H]1COc1ncccc1Cl [Example 524, (R)-7-(2-(((3-chloropyridin-2-yl)oxy)methyl)pyrrolidin-1-yl)-1-(6-(3-(dimethylamino)azetidin-1-yl)pyridin-3-yl)-6-methoxy-4-oxo-1,4-dihydroquinoline-3-carboxylic acid] | 5.00 to 6.00 |
| O=C(O)c1cn(-c2ccc(N3CCCC3=O)nc2)c2nc(N3CCC[C@@H]3COc3ncccc3Cl)c(Cl)cc2c1=O [Example 525, (R)-6-chloro-7-(2-(((3-chloropyridin-2-yl)oxy)methyl)pyrrolidin-1-yl)-4-oxo-1-(6-(2-oxopyrrolidin-1-yl)pyridin-3-yl)-1,4-dihydro-1,8-naphthyridine-3-carboxylic acid] | ≥ 6.00 |
| CN(C)C1CN(c2ccc(-n3cc(C(=O)O)c(=O)c4cc(Cl)c(N5CCC[C@@H]5COc5ncccc5F)cc43)cn2)C1 [Example 526, (R)-6-chloro-1-(6-(3-(dimethylamino)azetidin-1-yl)pyridin-3-yl)-7-(2-(((3-fluoropyridin-2-yl)oxy)methyl)pyrrolidin-1-yl)-4-oxo-1,4-dihydroquinoline-3-carboxylic acid] | ≥ 6.00 |
| O=C(O)c1cn(-c2ccc(N3CC4CNCC4C3)nc2)c2cc(N3CCC[C@@H]3COc3ncccc3Cl)c(Cl)cc2c1=O (stereo partly drawn) [Example 527, 6-chloro-7-((R)-2-(((3-chloropyridin-2-yl)oxy)methyl)pyrrolidin-1-yl)-1-(6-(hexahydro-pyrrolo[3,4-c]pyrrol-2(1H)-yl)pyridin-3-yl)-4-oxo-1,4-dihydroquinoline-3-carboxylic acid acid] | ≥ 6.00 |
| Cc1cc2c(=O)c(C(=O)O)cn(-c3ccc(N4CC(N(C)C)C4)nc3)c2cc1N1CCC[C@@H]1COc1ncccc1F [Example 528, (R)-1-(6-(3-(dimethylamino)azetidin-1-yl)pyridin-3-yl)-7-(2-(((3-fluoropyridin-2-yl)oxy)methyl)pyrrolidin-1-yl)-6-methyl-4-oxo-1,4-dihydroquinoline-3-carboxylic acid] | ≥ 6.00 |
| O=C(O)c1cn(-c2cnc3cc[nH]c3n2)c2cc(N3CCC[C@@H]3COc3ncccc3Cl)c(Cl)cc2c1=O [Example 530, (R)-6-chloro-7-(2-(((3-chloropyridin-2-yl)oxy)methyl)pyrrolidin-1-yl)-4-oxo-1-(5H-pyrrolo[2,3-b]pyrazin-3-yl)-1,4-dihydroquinoline-3-carboxylic acid] | ≥ 6.00 |
| O=C(O)c1cn(-c2ccc(N3CCC3=O)nc2)c2nc(N3CCC[C@@H]3COc3ncccc3Cl)c(Cl)cc2c1=O [Example 531, (R)-6-chloro-7-(2-(((3-chloropyridin-2-yl)oxy)methyl)pyrrolidin-1-yl)-4-oxo-1-(6-(2-oxoazetidin-1-yl)pyridin-3-yl)-1,4-dihydro-1,8-naphthyridine-3-carboxylic acid] | ≥ 6.00 |
